Reference: patent US8067451B2, “Methods and medicaments for administration of ibuprofen” (Horizon Pharma USA, Inc., priority 2006, dated 2011)
Like-named read-outs stand apart in the source and are kept apart here.

Experiments:
[1] = Description: where V/F is the apparent volume of distribution, ka is the absorption rate constant, kel is the elimination rate constant and Tlag is the absorption lag time.
intragastric pH = system: intragastric pH
Description: The estimated pharmacodynamic parameters are listed below: Using the pharmacokinetic parameters obtained above together with the pharmacodynamic parameters above, plasma concentrations as well as intragastric pH as a function of time were simulated for various dose regimens.

gastric pH = details: for Amount by which TID dosing exceeded BID dosing, Gastric pH (24 h), mean of group / Amount by which TID dosing exceeded BID dosing, Upright Gastric pH, mean of group / Mean reduction in time with gastric pH below 3.5, TID compared to BID / Mean reduction in time with gastric pH below 4.0, TID compared to BID: 26.6 mg TID vs 40 mg BID; for Median pH (Upright), by subject / Fraction time pH < 4, by subject / Time pH < 4, by subject: individual subjects; for Fraction time pH < 4, by subject / Time pH < 4, by subject: 24 h; for Patients with 24-hour median gastric pH below 2.5: 13 subjects
Method: Thirteen healthy subjects participated in the study.
There was a washout of at least one week between administration of the last dose of Treatment Period 1 and administration of the first dose of Treatment Period 2.
All doses of study medication were administered orally, on an open-label basis. Subjects were prohibited from taking any medications or interventions that decrease gastric acid secretion or neutralize gastric acid, and any medications that are known or suspected to cause dyspepsia or gastrointestinal ulcers, throughout the study period.
(The first day of dosing for each treatment period is designated Study Day 1, and the last day of dosing is designated Study Day […]). Subjects were followed for 14 days after administration of their last dose of study medication.
(§1) For each patient the median pH during a 24 hour period (or subperiod thereof) was calculated. To measure the effect of treatments for a group of individuals, the average or mean of the measured medians for several individuals was determined (i.e., average={[M1+M2 . . . Mx]/X} where “x” is the number of individuals in the group and each “M” is the median for an individual in the group).

[2] = remark: listed apart in the source
Method: as §1
Samples were collected prior to initiation of dosing, and prior to administration of the second dose of study medication on Study Day 1 and Study Day 5 during both treatment periods.

[3] = for Famotidine (% control): glass vials
Description: Forced degradation conditions refer to conditions of elevated temperature, or elevated temperature and humidity, intended to accelerate the process of chemical degradation. Forced degradation conditions for a period of time are used to predict the effect of storage under more benign conditions (e.g., room temperature) for a longer period of time.
After grinding, API mixture was stored in glass vials under the conditions indicated.

clinical = details: male, human, plasma
[4] = Pharmacokinetic drug-drug interaction study of ibuprofen and famotidine in healthy male subjects; details: for Bioequivalence when administered in combination compared to separate administration: 800 mg ibuprofen and 40 mg famotidine; for Difference of log-transformed AUC(last), alone versus in combination / Difference of log-transformed Cmax, alone versus in combination: bioequivalence test
[5] = fit to mean plasma data of 40 mg Pepcid single dose study
[6] = 26.6 mg TID, 24 h of Study Day 1, all subjects n=13
[7] = 26.6 mg TID, Study Day 1, all subjects
[8] = 26.6 mg TID, Study Day 1, all subjects n=13
[9] = 26.6 mg TID, Study Day 1, normal weight subjects
[10] = 26.6 mg TID, Study Day 1, normal weight subjects n=9
[11] = 40 mg BID, 24 h of Study Day 1, all subjects n=13
[12] = 40 mg BID, Study Day 1, all subjects
[13] = 40 mg BID, Study Day 1, all subjects n=13
[14] = 40 mg BID, Study Day 1, normal weight subjects
[15] = 40 mg BID, Study Day 1, normal weight subjects n=9

NC(N)=Nc1nc(CSCCC(N)=NS(N)(=O)=O)cs1 [famotidine, 3-[2-(diaminomethyleneamino)thiazol-4-ylmethylthio]-N-sulfamoyl propionamidine]
V/F (apparent volume of distribution) ([1]; fit to mean plasma data of 40 mg Pepcid single dose bioequivalence study (n=30)): 241.8 L | Tlag (absorption lag time) [1, 5]: 0.3677 h | ka (absorption rate constant) [1, 5]: 0.8133 h⁻¹ | kel (elimination rate constant) [1, 5]: 0.2643 h⁻¹ | Emax (maximum intragastric pH) (intragastric pH; sigmoid Emax fit of digitized plasma concentration vs intragastric pH, one patient (Echizen and Ishizaki)): 7.80 | E0 (intragastric pH at time zero) (intragastric pH; sigmoid Emax fit, one patient): 1.88 | γ (shape factor) (intragastric pH; sigmoid Emax fit, one patient): 4.80 | EC50 (Pepcid concentration at one-half of Emax) (intragastric pH; sigmoid Emax fit, plasma concentration vs intragastric pH, one patient): 0.0326 µg/mL | Amount by which TID dosing exceeded BID dosing, Gastric pH (24 h), mean of group (gastric pH; all subjects): 0.3 pH Units | Amount by which TID dosing exceeded BID dosing, Upright Gastric pH, mean of group (gastric pH; all subjects): 0.5 pH Units | Mean reduction in time with gastric pH below 3.5, TID compared to BID (gastric pH; all subjects): 19.5 min | Mean reduction in time with gastric pH below 4.0, TID compared to BID (gastric pH; all subjects): 23.1 min | Amount by which TID dosing exceeded BID dosing, Gastric pH (24 h), mean of group (gastric pH; normal weight group): 0.5 pH Units | Amount by which TID dosing exceeded BID dosing, Upright Gastric pH, mean of group (gastric pH; normal weight group): 0.8 pH Units | Mean reduction in time with gastric pH below 3.5, TID compared to BID (gastric pH; normal weight group): 89.3 min | Mean reduction in time with gastric pH below 4.0, TID compared to BID (gastric pH; normal weight group): 89.9 min | Average time below pH 3.5 (gastric pH; [6]): 693.5 min | Average time below pH 4.0 (gastric pH; [6]): 783.4 Minutes | Average Absolute Deviation of 24 hour median gastric pH (gastric pH; [7]): 0.5 | Average Absolute Deviation of pH in upright position (gastric pH; [7]): 0.7 | Average Absolute Deviation of time below pH 3.5 (gastric pH; [7]): 124.7 min | Average Absolute Deviation of time below pH 4.0 (gastric pH; [7]): 111.9 min | Max-Min of pH values in the upright position (gastric pH; [7]): 2.4 pH units | Max-Min of time below pH 3.5 (gastric pH; [7]): 436 min | Max-Min of time below pH 4.0 (gastric pH; [7]): 459 min | Standard Deviation of 24 hour median gastric pH (gastric pH; [7]): 0.7 | Max-Min of 24 hour median gastric pH (gastric pH; [8]): 1.9 pH units | Mean of 24 hour median gastric pH (gastric pH; [8]): 3.6 pH units | Mean of pH values taken in the upright position (gastric pH; [8]): 3.7 | Range of 24 hour median gastric pH (gastric pH; [8]): 2.5-4.4 | Range of pH values taken in the upright position (gastric pH; [8]): 2.3-4.7 | Range of time below pH 3.5 (gastric pH; [8]): 514-950 min | Range of time below pH 4.0 (gastric pH; [8]): 589-1048 Minutes | Average Absolute Deviation of 24 hour median gastric pH (gastric pH; [9]): 0.5 | Average Absolute Deviation of time below pH 3.5 (gastric pH; [9]): 116.7 min | Average Absolute Deviation of time below pH 4.0 (gastric pH; [9]): 105.4 min | Average Absolute Deviation of upright pH values (gastric pH; [9]): 0.9 | Average time below pH 3.5 (gastric pH; [9]): 662.7 min | Average time below pH 4.0 (gastric pH; [9]): 764.2 Minutes | Max-Min of 24 hour median gastric pH (gastric pH; [9]): 1.9 pH units | Max-Min of time below pH 3.5 (gastric pH; [9]): 436 min | Max-Min of time below pH 4.0 (gastric pH; [9]): 459 min | Max-Min of upright pH values (gastric pH; [9]): 2.4 pH units | Mean of upright pH values (gastric pH; [9]): 3.8 | Range of time below pH 3.5 (gastric pH; [9]): 514-950 min | Range of time below pH 4.0 (gastric pH; [9]): 589-1048 Minutes | Range of upright pH values (gastric pH; [9]): 2.3-4.7 | Standard Deviation of 24 hour median gastric pH (gastric pH; [9]): 0.7 | Mean of 24 hour median gastric pH (gastric pH; [10]): 3.6 | Range of 24 hour median gastric pH (gastric pH; [10]): 2.5-4.4 | Average time below pH 3.5 (gastric pH; [11]): 713.0 min | Average time below pH 4.0 (gastric pH; [11]): 806.5 Minutes | Average Absolute Deviation of 24 hour median gastric pH (gastric pH; [12]): 0.9 | Average Absolute Deviation of pH in upright position (gastric pH; [12]): 1.0 | Average Absolute Deviation of time below pH 3.5 (gastric pH; [12]): 169.1 min | Average Absolute Deviation of time below pH 4.0 (gastric pH; [12]): 158.8 min | Max-Min of pH values in the upright position (gastric pH; [12]): 3.3 pH units | Max-Min of time below pH 3.5 (gastric pH; [12]): 706 min | Max-Min of time below pH 4.0 (gastric pH; [12]): 710 min | Standard Deviation of 24 hour median gastric pH (gastric pH; [12]): 1.1 | Max-Min of 24 hour median gastric pH (gastric pH; [13]): 3.3 pH units | Mean of 24 hour median gastric pH (gastric pH; [13]): 3.3 pH units | Mean of pH values taken in the upright position (gastric pH; [13]): 3.2 | Range of 24 hour median gastric pH (gastric pH; [13]): 1.8-5.1 | Range of pH values taken in the upright position (gastric pH; [13]): 1.8-5.1 | Range of time below pH 3.5 (gastric pH; [13]): 459-1165 min | Range of time below pH 4.0 (gastric pH; [13]): 514-1224 Minutes | Average Absolute Deviation of 24 hour median gastric pH (gastric pH; [14]): 0.9 | Average Absolute Deviation of time below pH 3.5 (gastric pH; [14]): 175.1 min | Average Absolute Deviation of time below pH 4.0 (gastric pH; [14]): 155.7 min | Average Absolute Deviation of upright pH values (gastric pH; [14]): 1.0 | Average time below pH 3.5 (gastric pH; [14]): 752.0 min | Average time below pH 4.0 (gastric pH; [14]): 854.1 Minutes | Max-Min of 24 hour median gastric pH (gastric pH; [14]): 2.2 pH units | Max-Min of time below pH 3.5 (gastric pH; [14]): 679 min | Max-Min of time below pH 4.0 (gastric pH; [14]): 510 min | Max-Min of upright pH values (gastric pH; [14]): 2.8 pH units | Mean of upright pH values (gastric pH; [14]): 3.0 | Range of time below pH 3.5 (gastric pH; [14]): 486-1165 min | Range of time below pH 4.0 (gastric pH; [14]): 714-1224 Minutes | Range of upright pH values (gastric pH; [14]): 1.8-4.6 | Standard Deviation of 24 hour median gastric pH (gastric pH; [14]): 1.1 | Mean of 24 hour median gastric pH (gastric pH; [15]): 3.1 | Range of 24 hour median gastric pH (gastric pH; [15]): 1.8-4.0 | Median pH (Upright), by subject (gastric pH; BID 40 mg): 1.8 pH Units | Fraction time pH < 4, by subject (gastric pH; BID 40 mg): (69.8%) | Time pH < 4, by subject (gastric pH; BID 40 mg): 1005 min | Patients with 24-hour median gastric pH below 2.5 (gastric pH; BID period (40 mg)): three | Difference in Median pH (Upright), TID period vs BID period (gastric pH; Subject 106): 2.2 pH Units | Difference in Median pH, TID period vs BID period (gastric pH; Subject 106): 2.1 pH Units | Difference in Time pH < 4, BID period vs TID period (gastric pH; Subject 106): 268 min | Median pH (Upright), by subject (gastric pH; TID 26.6 mg): 4.0 pH Units | Fraction time pH < 4, by subject (gastric pH; TID 26.6 mg): (51.2%) | Time pH < 4, by subject (gastric pH; TID 26.6 mg): 737 min | Patients with 24-hour median gastric pH below 2.5 (gastric pH; TID period (26.6 mg)): no patients | Plasma accumulation with TID dosing ([2]; 26.6 mg TID vs 40 mg BID, day 5 trough): does not lead to plasma accumulation | Trough plasma concentration of famotidine (mean) ([2]; 26.6 mg TID, Day 1, prior to second dose): 9.7 ng/mL | Trough plasma concentration of famotidine (mean) ([2]; 26.6 mg TID, Day 5, prior to second dose): 15.7 ng/mL | Trough plasma concentration of famotidine (mean) ([2]; 40 mg BID, Day 1, prior to second dose): 10.5 ng/mL | Trough plasma concentration of famotidine (mean) ([2]; 40 mg BID, Day 5, prior to second dose): 15.7 ng/mL | Famotidine (% control) ([3]; 1 wk 40° C.): 96.1 % control | Famotidine (% control) ([3]; 1 wk 60° C.): 121.0 % control | Famotidine Content (percent of target content) ([3]; 2 weeks at 60° C.): 98% | Famotidine (% control) ([3]; 2 wks 60° C.): 100.1 % control | Tmax (clinical; oral): 2.17 ± 0.93 h | half-life (clinical; oral): 3.49 ± 0.35 h | Tmax (clinical; po): 1.67 ± 0.52 h | half-life (clinical; po): 3.66 ± 0.19 h | Bioequivalence when administered in combination compared to separate administration [4]: bioequivalent | Kel (mean ± SD) ([4]; administered alone, single oral dose, 800 mg ibuprofen or 40 mg famotidine): 0.19 ± 0.01 | Difference of log-transformed AUC(last), alone versus in combination [4]: −0.034 | Difference of log-transformed Cmax, alone versus in combination [4]: −0.08

CC(C)Cc1ccc(C(C)C(=O)O)cc1 (stereo not drawn) [ibuprofen, 2-(p-isobutylphenyl) propionic acid]
Tmax (clinical; oral): 2.25 ± 1.89 h | Tmax (clinical; po): 1.58 ± 0.49 h | Bioequivalence when administered in combination compared to separate administration [4]: bioequivalent | Difference of log-transformed AUC(last), alone versus in combination [4]: 0.02 | Difference of log-transformed Cmax, alone versus in combination [4]: 0.02
